Source: patent publication US7750184B2, “Vitamin D receptor modulators” (Eli Lilly and Company, priority 2003, dated 2010)
Read-outs that look alike come from different tables or passages of the source.

Legend:
[1] = system: KERtr cells; test: Keratinocyte proliferation assay; assay type: cell-based; conditions: Homo sapiens, 72 hr, BrdU incorporation, read-out: Kera. Prolif. IC50
Procedure: 5. The Keratinocte Proliferation Assay
This Assay is indicative for the treatment of psoriasis.
(5) The Keratinocyte Proliferation Assay:
KERtr cells (Human skin keratinocyte transformed with a retrovirus vector, obtained from ATCC) were plated in 96-well flat-bottomed plates (3000 cells/well) in 100 µl keratinocyte serum free medium supplemented with bovine pituitary extract in the absence of EGF (Life Technologies, Rockville, Md.) and incubated at 37° C. for two days. The cells were treated with various concentrations of VDR ligands (ten-fold serial dilution from 10,000 nM to 0.1 nM in triplicate), dissolved in 100 μl keratinocyte serum free medium supplemented with bovine pituitary extract in the absence of EGF and incubated at 37° C. for 72 hr. BrdU (5-bromo-2′-deoxyuridine) incorporation was analyzed as a measure of DNA replication (Cell proliferation ELISA kit, Roche Diagnostics, Indianapolis, Ind.) and absorbance was measured at 405 nm. Potency values (IC50) values were determined as the concentration (nM) of compound that elicited a half-maximal response.

[2] = target: T1, VDR (Homo sapiens, UniProt P11473); test: Caco-2 cell co-transfection assay (VDR CTF); assay type: cell-based; conditions: Caco-2 cells, pGal4-VDR-LBD co-transfection, luciferase reporter
T1 construct: the receptor expression vector pGal4-VDR-LBD (10 ng); expressed in transfected cells; host or cells: Caco-2 cells
T1 sequence (P11473 127-423 limits assumed): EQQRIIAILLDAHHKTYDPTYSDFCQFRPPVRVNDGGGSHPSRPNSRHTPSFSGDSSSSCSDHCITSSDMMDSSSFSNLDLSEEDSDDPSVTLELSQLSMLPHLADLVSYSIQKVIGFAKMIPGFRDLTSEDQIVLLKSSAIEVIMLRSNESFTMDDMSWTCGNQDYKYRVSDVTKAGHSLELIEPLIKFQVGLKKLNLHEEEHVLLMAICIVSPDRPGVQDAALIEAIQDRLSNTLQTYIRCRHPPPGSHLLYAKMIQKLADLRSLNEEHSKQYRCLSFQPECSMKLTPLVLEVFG
Procedure: 2. The Caco-2 Cell Co-Transfection Assay:
The Caco-2 cell assay is an indicator for the undesirable condition of hypercalcemia. This co-transfection assay is a surrogate assay for in vivo calcemic activity of VDR ligands. […] Preferred assay results are greater than 1000 nM.
(2) Materials and Method for The Caco-2 Cell Assay:
Caco-2 cells, grown in phenol red free, DMEM (Invitrogen, Carlsbad, Calif.) containing 10% charcoal-stripped FCS (Hyclone, Logan, Utah), were transfected with Fugene 6 reagent (Roche Diagnostics, Indianapolis, Ind.). Cells (5000/well) were plated 18 h before transfection in a 96 well plate. The Cells were transfected with Gal4-responsive reporter pFRLuc (150 ng, Stratagene, La Jolla Calif.) and the receptor expression vector pGal4-VDR-LBD (10 ng), along with Fugene 6 reagent (0.2 μl/well). The DNA-Fugene complex was formed by incubating the mixture for 30 min at room temperature. The cells were transfected in triplicate for 5 h, and treated with various concentrations of VDR ligands (form 0.01 nM to 10,000 nM concentration range) 18 h post-transfection. The luciferase activity was quantified using Steady-Glo reagent kit (Promega, Madison, Wis.) as per manufacturer's specifications.

[3] = system: IL-10 production in PBMCs; test: IL-10 induction assay; assay type: cell-based; conditions: PBMC; TPA/PHA stimulated human PBMCs, IL-10 immunoassay
Text: 6. The IL-10 induction Assay
This is an in vitro efficacy assay for psoriasis, abscess and adhesion. Psoriasis involves both keratinocytes and immune cells. IL-10 is a unique cytokine because it is anti-inflammatory and immunosuppressive. This assay tells us whether a VDRM is able to function as an agonist in PBMCs (primary blood mononuclear cells) or not. A lower EC50 value is desirable in this assay since a compound with a lower EC50 value will be a better agonist in PBMCs.
(6) Materials and Method for Human IL-10 Induction Assay:
Isolation of Peripheral Blood Mononuclear Cells (PBMCs):
• A. Collect 50 ml of human blood and dilute with media, RPMI-1640. • B. Prepare sterile tubes with ficol. • C. Add diluted blood to tubes. • D. Centrifuge. • E. Discard the top layer and collect the cells from middle layer. • F. Divide all cells into four tubes and add media. • G. Centrifuge. • H. Aspirate off media and resuspend. • I. Collect all cells • J. Centrifuge. at 1200 rpm for 10 minutes. • K. Resuspend in RPMI-1640 with 2% FBS and count cells • Stimulation of PBMC: • L. Prepare TPA in DMSO. • M. Dissolve PHA in water. • N. Plate TPA/PHA treated PBMCs in well plates. • O. Incubate.
Treatment: • P. Prepare all compound dilutions in plain RPMI-1640 media. • Q. Add diluted compound. • R. Incubate. […]

[4] = target: T2, RXR-VDR heterodimer (Homo sapiens, UniProt P11473); test: RXR-VDR heterodimerization assay (SaOS-2 cells); assay type: cell-based; conditions: Gal4-RXR-DEF / VP16-VDR-LBD, luciferase reporter
T2 construct: Add the Gal4-RXR-DEF and VP16-VDR-LBD; expressed in transfected cells; host or cells: SaOS-2 cells
T2 sequence (P11473 127-423 limits assumed): T1 sequence (P11473 127-423 limits assumed)
T2 sequence (P19793 201-462 partner limits assumed): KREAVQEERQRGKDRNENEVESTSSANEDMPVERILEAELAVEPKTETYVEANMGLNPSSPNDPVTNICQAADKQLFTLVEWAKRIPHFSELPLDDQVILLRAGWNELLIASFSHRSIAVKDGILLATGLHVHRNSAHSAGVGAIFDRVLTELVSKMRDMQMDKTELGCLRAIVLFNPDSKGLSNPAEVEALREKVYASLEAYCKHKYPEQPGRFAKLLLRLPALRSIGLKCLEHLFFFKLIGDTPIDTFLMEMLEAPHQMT
Text: 1. The RXR-VDR heterodimer Assay:
This assay provides the VDR activity of a test compound.
(1) Materials and Method for RXR-VDR Heterodimerization Assay:
Luciferase Assay Reagent: • Use Steady-Glo Luciferase Reagent from Promega (Cat # E2550) Consists of:
Add plain DMEM media to tubes for mixing the DNA
Add the Reporter gene pFR-LUC
Add the Gal4-RXR-DEF and VP16-VDR-LBD
Make a stock solution of the compounds in DMSO
Further dilute in D-MEM (Low Glucose—With out Phenol Red)
Read the plates after drug treatment
Add Steady-Glo Luciferase Reagent mixture/wells
Count each well using a Luminescence counter, Top Count NXT by Packard

[5] = system: rat osteocalcin promoter; test: OCN (osteocalcin) promoter assay; assay type: cell-based; conditions: RG-15 (ROS 17/2.8) cells, 48 hr treatment, luciferase reporter
Procedure: 3. The OCN (osteocalcin) Promoter Assay
The OCN Promoter Assay is an indicator and marker for osteoporosis. […] Preferred assay results are less than 50 nM.
(3) Materials and Method for the OCN Promoter Assay:
The activation of osteocalcin by VDR ligands was evaluated in a rat osteoblast-like cell line RG-15 (ROS 17/2.8) stably expressing rat osteocalcin promoter fused with luciferase reporter gene. […] Confluent RG-15 cells maintained in DMEM/F-12 medium (3:1) containing 5% FBS, 300 μg/ml G418 and at 37° C. under 5% CO2/95% air atmosphere were trypsinized (0.25% trypsin) and plated into white opaque 96-well cell culture plates (25000 cells/well). After 24 hr, cells (in DMEM/F-12 medium+2% FBS) were treated with various concentrations of compounds, dissolved in DMSO. The final DMSO concentration remained at 0.01% (v/v). After 48 hr treatment, the medium was removed, cells were lysed with 50 μl of lysis buffer (From Luciferase reporter assay system, Roche Diagnostics, Indianapolis, Ind.) and assayed for luciferase activity using the Luciferase Reporter Gene Assay kit from Boehringer Mannheim as per manufacturer's specifications.

[6] = in vivo, po
Procedure: (§1) The Mouse Hypercalcemia Assay is a six day hypercalcemia test for toxicity and selectivity. Acceptable test results are levels greater than 300 μg/kg/day. Preferred assay results are levels greater than 1000 μg/day.
(§2) (4) Materials and Method for the Mouse Hypercalcemia Assay:
(§3) Weanling, virus—antibody-free, five to six weeks old female DBF mice (Harlan, Indianapolis, Ind.) are used for all the studies. Animals are allowed to acclimate to local vivarium conditions for 2 days. […] The animals then are divided into groups with 4-5 mice per group. Different doses of test compounds prepared in 10% Ethanol and 90% sesame oil are administered to mice orally via gavage for 6 days. 1α-25(OH)2D3 0.5 μg/kg/d was also given to one group of mice as the positive control. […] Raw data of group differences is assessed by analysis of variance (ANOVA) using Fisher's protected least significant difference (PLSD) where the significance level was P<0.05.

[7] = Mouse hypercalcemia assay; conditions: oral gavage for 6 days, serum ionized calcium 6 hours after last dosing
Procedure: as §1, §2, §3

Row | Compound | IC50 [1] [nM] | EC50 [2] [nM] | IC50 [3] [nM] | EC50 [4] [nM] | EC50 [5] [nM] | Mouse Hypercal [6] [µg/kg/day] | Mouse Hypercal [7] [µg/kg/day] | EC50 ([5]; Rattus norvegicus, 48 h) [nM]
1 | CCC(CC)(c1ccc(OS(C)(=O)=O)cc1)c1ccc(OCC(O)C(C)(C)C)c(Cl)c1 (single isomer, unassigned) [Ex. 45, 51B, 3′-[3-chloro-4-(2-hydroxy-3,3-dimethylbutoxy)phenyl]-3′-(4-methylsulfonyloxyphenyl)pentane] | 27 | 353 | 39.5 | 24 | 13 | – | – | –
2 | C=C1/C(=C\C=C2/CCC[C@]3(C)[C@@H]([C@H](C)CCCC(C)(C)O)CC[C@@H]23)C[C@@H](O)C[C@@H]1O [AA, 1α,25-dihydroxyvitamin D3] | – | – | – | – | – | 0.06 | – | –
3 | CCC(CC)(c1ccc(OCC(=O)C(C)(C)C)c(C)c1)c1ccc(N(C)S(C)(=O)=O)c(C)c1 [Ex. 18, N-(4-{1-[4-(3,3-Dimethyl-2-oxo-butoxy)-3-methyl-phenyl]-1-ethyl-propyl}-2-methyl-phenyl)-N-methyl-methanesulfonamide] | 32 | 485 | – | 69.6 | – | – | 1500 | 7.62
4 | CCCS(=O)(=O)N(c1ccc(C(CC)(CC)c2ccc(OCC(=O)C(C)(C)C)c(C)c2)cc1C)S(=O)(=O)CCC [Ex. 25, N-(4-{1-[4-(3,3-Dimethyl-2-oxo-butoxy)-3-methyl-phenyl]-1-ethyl-propyl}-2-methyl-phenyl)-N,N-bis-1-propanesulfonamide] | 14.6 | 1290 | – | 47.3 | – | – | – | 34.2
5 | CCCS(=O)(=O)Nc1ccc(C(CC)(CC)c2ccc(OCC(=O)C(C)(C)C)c(C)c2)cc1C [Ex. 26, N-(4-{1-[4-(3,3-Dimethyl-2-oxo-butoxy)-3-methyl-phenyl]-1-ethyl-propyl}-2-methyl-phenyl)-1-propanesulfonamide] | 4.4 | 333 | – | 5.7 | – | – | <1000 | 3.69
6 | CCC(CC)(c1ccc(OCC(=O)C(C)(C)C)cc1)c1ccc(OS(C)(=O)=O)c(C)c1 [Ex. 36, 3′-[4-(2-oxo-3,3-dimethylbutoxy)-phenyl]-3′-[4-methylsulfonyloxy-3-methylphenyl]pentane] | 36 | 592 | – | 15.2 | – | – | >3000 | 45.5
7 | CCC(CC)(c1ccc(OS(C)(=O)=O)cc1)c1ccc(OCC(=O)C(C)(C)C)c(Cl)c1 [Ex. 42, 3′-[3-chloro-4-(2-oxo-3,3-dimethylbutoxy)phenyl]-3′-[4-(methylsulfonyloxy)phenyl]pentane] | 9 | 728 | – | 495 | – | – | <1000 | 25.1
8 | CCC(CC)(c1ccc(OS(=O)(=O)C(F)(F)F)cc1)c1ccc(OCC(O)C(C)(C)C)c(Cl)c1 (stereo not shown) [Ex. 47, 53, 3′-[3-chloro-4-(2-hydroxy-3.3-dimethylbutoxy)phenyl]-3′-(4-trifluoromethylsulfonyloxyphenyl)pentane] | 300 | 431 | – | 12.5 | – | – | – | 92.5
